In patent US6737383B1, “Herbicidal oxadiazolidines” (priority 1999, dated 2004):

Columns and labels:
[1] = test system: soybean; assay: Test B pre/postemergence soybean; format: in vivo, Glycine max
How it was run: (§1)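 Herbicidal effect was estimated by eye on a ten-point control scale after plants spent twelve to sixteen days in a greenhouse following soil or foliar treatment. Foliar sprays targeted plants at one to four leaves; all doses were formulated in a non-phytotoxic solvent with surfactant.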

[2] = test system: giant foxtail; assay: Test B pre/postemergence giant foxtail; format: in vivo, Setaria faberii
How it was run: as §1

[3] = test system: smallflower flatsedge; assay: Test B flood test smallflower flatsedge; format: in vivo, Cyperus difformis
How it was run: (§2)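 Plants were grown to the 2-leaf stage before treatment with test chemical, then held in a greenhouse for twelve to sixteen days. Injury was visually rated against untreated controls on a 0–10 scale, where 0 is no effect and 10 is complete control.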

[4] = test system: corn; assay: Test B pre/postemergence corn; format: in vivo, Zea mays
How it was run: as §1

[5] = test system: blackgrass; assay: Test B pre/postemergence blackgrass; format: in vivo, Alopecurus myosuroides
How it was run: as §1

[6] = test system: bedstraw; assay: Test B pre/postemergence bedstraw; format: in vivo, Galium aparine
How it was run: as §1

[7] = test system: morningglory; assay: Test B pre/postemergence morningglory; format: in vivo, Ipomoea hederacea
How it was run: as §1

[8] = test system: wheat; assay: Test B pre/postemergence wheat; format: in vivo, Triticum aestivum; settings: for Plant response rating, Wheat: Rate 250 g/ha
How it was run: as §1

[9] = test system: pigweed; assay: Test B pre/postemergence pigweed; format: in vivo, Amaranthus retroflexus
How it was run: as §1

[10] = test system: surinam grass; assay: Test B pre/postemergence surinam grass; format: in vivo, Brachiaria decumbens
How it was run: as §1

[11] = test system: rape; assay: Test B pre/postemergence rape; format: in vivo, Brassica napus
How it was run: as §1

[12] = test system: cocklebur; assay: Test B pre/postemergence cocklebur; format: in vivo, Xanthium strumarium
How it was run: as §1

[13] = test system: sugar beet; assay: Test B pre/postemergence sugar beet; format: in vivo, Beta vulgaris; settings: for Plant response rating, Sugarbeets: Rate 250 g/ha
How it was run: as §1

[14] = test system: rice; assay: Test B flood test rice; format: in vivo, Oryza sativa
How it was run: as §2

[15] = test system: velvetleaf; assay: Test B pre/postemergence velvetleaf; format: in vivo, Abutilon theophrasti; settings: for Plant response rating, Velvetleaf: Rate 250 g/ha
How it was run: as §1

[16] = test system: wild oat; assay: Test B pre/postemergence wild oat; format: in vivo, Avena fatua; settings: for Plant response rating, Wild oats: Rate 250 g/ha
How it was run: as §1

[17] = Postemergence, Rate 62 g/ha, scale 0 to 10, 0 is no effect, 10 is complete control
[18] = Postemergence, Rate 125 g/ha, scale of 0 to 10 where 0 is no effect and 10 is complete control
[19] = Preemergence, Rate 62 g/ha, scale 0 to 10 (0 no effect, 10 complete control)
[20] = Preemergence, Rate 125 g/ha, scale 0 to 10 (0 no effect, 10 complete control)
[21] = Preemergence, Rate 250 g/ha, scale of 0 to 10 where 0 is no effect and 10 is complete control
[22] = Preemergence, Rate 500 g/ha, scale 0 (no effect) to 10 (complete control)
[23] = Rate 250 g/ha, Postemergence, scale 0 to 10, 0 is no effect, 10 is complete control
[24] = Rate 500 g/ha, Postemergence, scale 0 to 10, 0 no effect, 10 complete control
[25] = Postemergence, Rate 250 g/ha, scale 0 to 10, 0 no effect, 10 complete control
[26] = Postemergence (flood test species), Rate 125 g/ha, scale of 0 to 10 where 0 is no effect and 10 is complete control
[27] = Rate 250 g/ha, Postemergence (flood test), scale 0 to 10, 0 is no effect, 10 is complete control
[28] = Rate 500 g/ha, listed under Postemergence (flood test species), scale 0 to 10, 0 no effect, 10 complete control
[29] = Rate 125 g/ha, Postemergence, scale 0 to 10, 0 no effect, 10 complete control
[30] = Preemergence, Rate 125 g/ha, 0 is no effect, 10 is complete control
[31] = Preemergence, scale of 0 to 10 where 0 is no effect and 10 is complete control
[32] = Postemergence, scale 0 to 10, 0 is no effect, 10 is complete control

## Cc1nn(C)c(Cl)c1-n1c(=O)on(C(=O)N(c2ccc(F)cc2)C(C)C)c1=O [Compound 95]
[1]; [17]
  Soybean plant response rating: 1
[1]; [18]
  Soybean plant response rating: 1
[1]; [19]
  Soybean plant response rating: 0
[1]; [20]
  Plant response rating, Soybean: 0
[1]; [21]
  Plant response rating, Soybean: 0
[1]; [22]
  Soybean plant response rating: 0
[1]; [23]
  Plant response rating, Soybean: 1
[1]; [24]
  Soybean plant response rating: 1
[2]; [17]
  Giant foxtail plant response rating: 0
[2]; [18]
  Giant foxtail plant response rating: 0
[2]; [25]
  Giant foxtail plant response rating: 1
[2]; [19]
  Giant foxtail plant response rating: 2
[2]; [20]
  Plant response rating, Giant foxtail: 4
[2]; [21]
  Plant response rating, Giant foxtail: 7
[2]; [22]
  Giant foxtail plant response rating: 8
[2]; [24]
  Giant foxtail plant response rating: 6
[3]; [26]
  S. Flatsedge plant response rating: 0
[3]; [17]
  S. Flatsedge plant response rating: 0
[3]; [27]
  Plant response rating, S. Flatsedge: 0
[3]; [28]
  S. Flatsedge plant response rating: 5
[4]; [17]
  Corn plant response rating: 0
[4]; [18]
  Corn plant response rating: 0
[4]; [25]
  Corn plant response rating: 0
[4]; [19]
  Corn plant response rating: 0
[4]; [20]
  Plant response rating, Corn: 0
[4]; [21]
  Plant response rating, Corn: 0
[4]; [22]
  Corn plant response rating: 0
[4]; [24]
  Corn plant response rating: 0
[5]; [17]
  Blackgrass plant response rating: 0
[5]; [18]
  Blackgrass plant response rating: 0
[5]; [25]
  Blackgrass plant response rating: 4
[5]; [19]
  Blackgrass plant response rating: 0
[5]; [20]
  Plant response rating, Blackgrass: 2
[5]; [21]
  Plant response rating, Blackgrass: 4
[5]; [22]
  Blackgrass plant response rating: 6
[5]; [24]
  Blackgrass plant response rating: 5
[6]; [17]
  Bedstraw plant response rating: 0
[6]; [25]
  Bedstraw plant response rating: 0
[6]; [19]
  Bedstraw plant response rating: 0
[6]; [20]
  Plant response rating, Bedstraw: 0
[6]; [21]
  Plant response rating, Bedstraw: 0
[6]; [22]
  Bedstraw plant response rating: 0
[6]; [29]
  Bedstraw plant response rating: 0
[6]; [24]
  Bedstraw plant response rating: 2
[7]; [17]
  Morningglory plant response rating: 1
[7]; [18]
  Morningglory plant response rating: 1
[7]; [25]
  Morningglory plant response rating: 2
[7]; [19]
  Morningglory plant response rating: 0
[7]; [20]
  Plant response rating, Morningglory: 0
[7]; [21]
  Plant response rating, Morningglory: 0
[7]; [22]
  Morningglory plant response rating: 0
[7]; [24]
  Morningglory plant response rating: 8
[8]; [17]
  Wheat plant response rating: 0
[8]; [18]
  Wheat plant response rating: 0
[8]; [19]
  Wheat plant response rating: 0
[8]; [30]
  Wheat plant response rating (0 to 10 scale): 0
[8]; [31]
  Plant response rating, Wheat: 0
[8]; [22]
  Wheat plant response rating: 0
[8]; [32]
  Plant response rating, Wheat: 0
[8]; [24]
  Wheat plant response rating: 0
[9]; [17]
  Redroot pigweed plant response rating: 2
[9]; [18]
  Redroot pigweed plant response rating: 3
[9]; [19]
  Redroot pigweed plant response rating: 5
[9]; [20]
  Plant response rating, Redroot pigweed: 6
[9]; [21]
  Plant response rating, Redroot pigweed: 9
[9]; [22]
  Redroot pigweed plant response rating: 9
[9]; [23]
  Plant response rating, Redroot pigweed: 3
[9]; [24]
  Redroot pigweed plant response rating: 5
[10]; [17]
  B. signalgrass plant response rating: 0
[10]; [25]
  B. signalgrass plant response rating: 3
[10]; [19]
  B. signalgrass plant response rating: 0
[10]; [20]
  Plant response rating, B. signalgrass: 0
[10]; [21]
  Plant response rating, B. signalgrass: 3
[10]; [22]
  B. signalgrass plant response rating: 7
[10]; [29]
  B. signalgrass plant response rating: 0
[10]; Rate 500 g/ha, Postemergence, scale of 0 to 10 where 0 is no effect and 10 is complete control
  B. signalgrass plant response rating: 5
[11]; [17]
  Rape plant response rating: 0
[11]; [18]
  Rape plant response rating: 0
[11]; [25]
  Rape plant response rating: 0
[11]; [19]
  Rape plant response rating: 0
[11]; [20]
  Plant response rating, Rape: 0
[11]; [21]
  Plant response rating, Rape: 3
[11]; [22]
  Rape plant response rating: 3
[11]; [24]
  Rape plant response rating: 0
[12]; [17]
  Cocklebur plant response rating: 0
[12]; [18]
  Cocklebur plant response rating: 0
[12]; [25]
  Cocklebur plant response rating: 1
[12]; [19]
  Cocklebur plant response rating: 0
[12]; [20]
  Plant response rating, Cocklebur: 0
[12]; [21]
  Plant response rating, Cocklebur: 0
[12]; [22]
  Cocklebur plant response rating: 0
[12]; [24]
  Cocklebur plant response rating: 2
[13]; [17]
  Sugarbeets plant response rating: 2
[13]; [18]
  Sugarbeets plant response rating: 2
[13]; [19]
  Sugarbeets plant response rating: 0
[13]; [30]
  Sugarbeets plant response rating (0 to 10 scale): 1
[13]; [31]
  Plant response rating, Sugarbeets: 2
[13]; [22]
  Sugarbeets plant response rating: 3
[13]; [32]
  Plant response rating, Sugarbeets: 4
[13]; [24]
  Sugarbeets plant response rating: 4
[14]; [26]
  Rice plant response rating: 0
[14]; [17]
  Rice plant response rating: 0
[14]; [27]
  Plant response rating, Rice: 2
[14]; [28]
  Rice plant response rating: 4
[15]; [17]
  Velvetleaf plant response rating: 0
[15]; [18]
  Velvetleaf plant response rating: 0
[15]; [19]
  Velvetleaf plant response rating: 0
[15]; [30]
  Velvetleaf plant response rating (0 to 10 scale): 0
[15]; [31]
  Plant response rating, Velvetleaf: 0
[15]; [22]
  Velvetleaf plant response rating: 0
[15]; [32]
  Plant response rating, Velvetleaf: 0
[15]; [24]
  Velvetleaf plant response rating: 0
[16]; [17]
  Wild oats plant response rating: 0
[16]; [18]
  Wild oats plant response rating: 0
[16]; [19]
  Wild oats plant response rating: 0
[16]; [30]
  Wild oats plant response rating (0 to 10 scale): 0
[16]; [31]
  Plant response rating, Wild oats: 2
[16]; [22]
  Wild oats plant response rating: 5
[16]; [32]
  Plant response rating, Wild oats: 0
[16]; [24]
  Wild oats plant response rating: 3
